From publication PMC8147781, “Discovery of Pyrrolidine-2,3-diones as Novel Inhibitors of P. aeruginosa PBP3” (Antibiotics, 2021)
Converted amounts (≈) assume the structure as drawn.

Legend:
[1] = target: T1, PBP3 of P. aeruginosa (PaPBP3) (Pseudomonas aeruginosa, UniProt G3XD46); assay: FP-Bocillin FL competition assay; format: binding; conditions: 30 min preincubation before Bocillin FL, 37 °C; for IC50: read-out: IC50 Determination with PaPBP3, FP-Bocillin FL Assay
T1 construct: P. aeruginosa PBP3 (amino acids 40 to 563); His-tag; made in house; host or cells: E. coli BL21 (DE3) Rosetta, plasmid pET41_PBP-3
T1 sequence (G3XD46 40-563): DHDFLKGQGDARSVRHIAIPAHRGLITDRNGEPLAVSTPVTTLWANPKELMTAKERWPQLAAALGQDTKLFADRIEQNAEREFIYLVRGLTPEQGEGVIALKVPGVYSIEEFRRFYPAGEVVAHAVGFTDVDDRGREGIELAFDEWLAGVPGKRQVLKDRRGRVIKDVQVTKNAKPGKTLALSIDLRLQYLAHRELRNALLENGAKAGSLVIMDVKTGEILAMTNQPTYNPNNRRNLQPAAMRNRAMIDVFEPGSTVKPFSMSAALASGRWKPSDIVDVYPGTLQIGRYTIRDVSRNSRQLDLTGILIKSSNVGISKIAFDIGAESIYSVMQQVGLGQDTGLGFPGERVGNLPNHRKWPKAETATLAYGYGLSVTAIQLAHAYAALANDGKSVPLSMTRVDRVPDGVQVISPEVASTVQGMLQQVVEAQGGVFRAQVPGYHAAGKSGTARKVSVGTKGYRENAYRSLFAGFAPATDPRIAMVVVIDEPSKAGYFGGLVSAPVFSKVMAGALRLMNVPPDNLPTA
Method: Bocillin FL is a fluorescent penicillin V derivate used as a competitor for PBP inhibitors.
Fluorescence polarisation (FP) experiments were carried out as described before. To determine the binding of Bocillin FL to PBP, 200 nM of ^PaPBP3 was incubated for 30 min with 100 nM of Bocillin FL (Thermo Fisher Scientific, Waltham, MA, USA). The fluorescence polarisation signal of free Bocillin FL was monitored in a Pherastar microplate reader (BMG Labtech, Ortenberg, Germany) in the polarisation mode with Ex/Em: 485/520 nm excitation and emission filters. Millipolarisation (mP) units were calculated using the MARS data analysis software v30.40.R2 (BMG Labtech, Ortenberg, Germany). All the experiments were done in Sorensen buffer at 37 °C using flat-bottom, black 96-well plates. […] Bocillin FL was diluted in Sorensen buffer and added to the reaction and directly measured for 30 min at 37 °C. The FP was continuously measured in the presence and absence of compound and enzyme. […] The estimated IC50 values were established by sigmoidal nonlinear regression, using Prims v.8 software.

[2] = target: T1, PBP3 of P. aeruginosa (PaPBP3); assay: S2dfluo fluorescence transpeptidase assay; format: biochemical; conditions: for IC50: 300 nM PaPBP3, 30 min preincubation, 37 °C, read-out: IC50 Determination with PaPBP3, S2dfluo Assay; for inhibition at 100 µM: read-out: PBP3 Inhibition at 100 µM (%)
Method: The assays were carried out in the presence of 5% DMSO and 0.01% Triton X100 to avoid the formation of colloidal structures and adsorption of protein and/or compounds to surfaces. The Z’-factor determined for the assay was 0.73 ± 0.28, indicating the suitability and robustness of the assay for high throughput screening (HTS) (Figure 1B,C).
The activity of soluble ^PaPBP3 (300 nM) was measured in the presence of 0.8 mM S2d, 1 mM D-alanine and 0.5 mM mBBr for 25 min by monitoring the increase in the fluorescence intensity of mBBr at Ex/Em: 394/490 nm using an Infinite M1000 microplate reader (Tecan, Männedorf, Switzerland). To test the effect of inhibitors, 100 µM or 0.8 to 100 µM of compounds diluted in 96% DMSO were incubated for 30 min and 450 rpm with 300 nM soluble PBP3. The incubation period was set to improve the binding of non-covalent inhibitors and 0.01% Triton X100 (Sigma-Aldrich, Taufkirchen, Germany) was added to prevent aggregation of compounds. The enzyme reaction was started by adding a substrate mix of 0.8 mM S2d and […]. The enzyme, compound and substrate mix were mixed 1:1, pipetted with a Liquidator 96 (Melter Toledo, Gießen, Germany) and the fluorescence intensity was directly monitored with an Infinite M1000 microplate reader (Tecan) at Ex/Em: 394/490 nm. The assay was performed in black, flat-bottom 96-well microplates (Greiner Bio-One, Kremsmünster, Austria) at 37 °C in Sorensen Phosphate Buffer (57 mM Na2HPO4 and 10 mM KH2PO4, pH 7.5 + 0.01% Triton X-100). The velocity of the PBP3 reaction was calculated in the presence of each concentration of compound and the velocity values were used to estimate IC50 by sigmoidal nonlinear regression, using Prism v.9 software (San Diego, CA, USA) and the velocity of the reaction at each concentration.

[3] = tested on: T-lymphoblast CCRF-CEM cell line; assay: Cytotoxicity assay (PrestoBlue), CCRF-CEM; conditions: CC50, 72 h
Method: (§1) We finally tested the cytotoxicity of the compounds against four eukaryotic cell lines (Table 2 and Table S5), NRK-52E, an epithelial kidney cell line of Rattus norvegicus; Hep G2, an human epithelial liver cell line; and two suspension cell lines: CCRF-CEM, a T lymphoblast; and H9, a cutaneous T lymphocyte cell line.
(§2) Cell lines stored at −120 °C were thawed to 37 °C and resuspended in 10 mL of medium pre-warmed to 37 °C. Cells were pelleted at 300× g for 10 min, and then resuspended in fresh medium, seeded in a T-75 culture flask, and placed in a CO2 incubator (37 °C with 5% CO2 tension). Once the cells reached approximately 70–80% confluency, they were then passaged regularly. The adherent cell lines NRK52E, HepG2 and Huh 7 were washed once with 10 mL DPBS and detached with Trypsin-EDTA for 5 to 7 min and resuspended in 15 mL of the appropriate medium. The suspension cell line CCRF-CEM were diluted and resuspended in fresh RPMI 1640 PAN medium. To calculate the cell density, the cell resuspensions were diluted 1:6 with DPBS. Equal volumes of cell suspension and Trypan Blue were mixed and gently loaded into a haemocytometer (INCYTO, 31056 Republic of Korea). In each experiment, cell concentrations were adjusted to reach a concentration of 2.5 × 10^3 cell/well for NRK52E, 5 × 10^3 cell/well for HepG2, 6.2 × 10^4 cell/well for CCRF-CEM and 3 × 10^3 for H9. The cells were incubated with decreasing concentration of compounds (1 µL in 96% DMSO) for 72 h at 37 °C with 5% CO2 tension. Cycloheximide, a cytotoxic compound that interferes with the translocation step in eukaryotic protein synthesis was used as a control for the experiments. The assay was carried out in flat-bottom, transparent 96-well plates. Cell viability was determined using the PrestoBlue reagent (Thermo Fisher Scientific, Waltham, MA, USA) according to the manufacture’s protocol. First, 10× PrestoBlue was added to each well to obtain a 1× solution, and incubated at 37 °C for 45 min. Then, fluorescence was measured at Ex/Em: 550/595 nm using a ClarioStar microplate reader (BMG Labtech). Cytotoxicity was determined as the percentage of the difference in absorbance of the untreated sample to the treated sample. CC50 was calculated using the values obtained in each concentration using the sigmoidal dose-response by Prism v.8. The media used in each cell line is detailed in Table S6.

[4] = tested on: S. pneumoniae; assay: MIC broth microdilution, S. pneumoniae; format: cell-based; conditions: Streptococcus pneumoniae; Table S3; read-out: MIC (µM) S. pneumoniae
Method: (§3) MIC determination was performed via standard broth microdilution according to the Clinical & Laboratory Standards institute guidelines. Overnight colonies grown on BD-Columbia agar with 5% Sheep Blood (Becton Dickinson, Franklin Lakes, NJ, USA), were diluted in Mueller Hinton Broth 2 cation adjusted (MH+) medium (Thermo Fisher Scientific) to a concentration of 5 × 10^5 CFU/mL. Serial dilutions (1:2) of test compounds were incubated at 37 °C with 5 × 10^4 bacteria in a final volume of 100 μL. Sterile and growth controls in the presence of 1% DMSO and PMBN if the case, and the positive controls, aztreonam (AZT) and tigecycline (TIG) were included in the experiments (Table S4). The MICs were determined visually after 18 h at 37 °C and confirmed by the addition of 10% PrestoBlue (ThermoFisher Scientific) reagent according to the manufacture’s protocol. The fluorescence signal of PrestoBlue reagent was measured at Ex/Em: 550/595 nm after 30 min incubation at 37 °C using at a ClarioStar microplate reader (BMG Labtech). PrestoBlue reduction occurs in the presence of living cells and consequently turns red in colour and is highly fluorescent.

[5] = tested on: NRK-52E, epithelial kidney cell line; assay: Cytotoxicity assay (PrestoBlue), NRK52E; conditions: CC50, 72 h
Method: as §1, §2

[6] = tested on: H9, cutaneous T lymphocyte cell line; assay: Cytotoxicity assay (PrestoBlue), H9; conditions: CC50, 72 h
Method: as §1, §2

[7] = tested on: B. subtilis 168; assay: MIC broth microdilution, B. subtilis; format: cell-based; conditions: Bacillus subtilis, 168; Table S3
Method: as §3

[8] = tested on: E. coli Neumann; assay: MIC broth microdilution, E. coli; format: cell-based; conditions: Escherichia coli; Table S3; read-out: MIC (µM) E. coli Neumann
Method: as §3

[9] = tested on: K. pneumoniae clinical isolate; assay: MIC broth microdilution, K. pneumoniae; format: cell-based; conditions: Klebsiella pneumoniae; Table S3
Method: as §3

[10] = tested on: S. aureus 133; assay: MIC broth microdilution, S. aureus; format: cell-based; conditions: Staphylococcus aureus, 133; Table S3
Method: as §3

[11] = tested on: Hep G2, epithelial liver cell line; assay: Cytotoxicity assay (PrestoBlue), HepG2; conditions: CC50, 72 h
Method: as §1, §2

[12] = tested on: A. baumannii ATCC15308; assay: MIC broth microdilution, A. baumannii; format: cell-based; conditions: 10 µg/mL PMBN
Method: as §3

COc1ccc(N2C(=O)C(O)=C(C(=O)c3ccc4c(c3)OCO4)C2c2ccc(Br)cc2)cc1 (stereo not drawn) [Compound 5]
IC50 [1]: 69 ± 13 µM | IC50 [2]: 61 ± 1 µM

CCCCCCOc1cccc(N2C(=O)C(O)=C(C(=O)c3ccccc3)C2c2ccc(C(C)C)cc2)c1 (stereo not drawn) [Compound 2]
IC50 [1]: 17 ± 9 µM | IC50 [2]: 4 ± 6 µM | inhibition at 100 µM [2]: 101 ± 0.4%

COc1ccc(C2=C(O)C(=O)N(c3nc(SCc4ccccc4)n[nH]3)C2c2ccccc2F)cc1 (stereo not drawn) [Compound 7]
IC50 [1]: 58 ± 21 µM | IC50 [2]: 65 ± 19 µM | inhibition at 100 µM [2]: 62%

CCCCCCOc1cccc(N2C(=O)C(O)=C(C(=O)c3ccccc3)C2c2ccccc2F)c1 (stereo not drawn) [Compound 3]
IC50 Determination with PaPBP3, FP-Bocillin FL Assay [1]: failed to inhibit Bocillin FL binding | IC50 [1]: > 100 µM | IC50 [2]: 19 ± 1 µM | inhibition at 100 µM [2]: 100 ± 0.8%

O=C(C1=C(O)C(=O)N(Cc2c[nH]c3ccccc23)C1c1ccc(Cl)cc1)c1ccc(Br)cc1 (stereo not drawn) [Compound 39]
Cytotoxicity CCRF-CEM [3]: >100 µM | MIC [4]: 25 µM (≈ 13 µg/mL) | Cytotoxicity effect (µM) Epithelial kidney NRK52E [5]: > 100 µM | Cytotoxicity effect (µM) T-lymphocyte H9 [6]: > 100 µM | MIC [7]: > 100 µM | IC50 [1]: 11 ± 4 µM | MIC [8]: > 100 µM | MIC [9]: > 100 µM | MIC [10]: 25 µM (≈ 13 µg/mL) | IC50 [2]: 24 ± 7 µM | Cytotoxicity effect (µM) Epithelial liver HepG2 [11]: > 100 µM | MIC (µM) A. baumanii ATCC15308 [12]: > 100 µM

COc1ccc(C(=O)C2=C(O)C(=O)N(CCc3c(C)[nH]c4ccccc34)C2c2ccc(Cl)cc2)cc1 (stereo not drawn) [Compound 6]
IC50 [1]: 9 ± 6 µM | IC50 [2]: 63 ± 4 µM | inhibition at 100 µM [2]: 92 ± 7%
